“And” between values parts separate entries of the source, which are not always exact repeats. Equal values may be shown once.
Assays:
mice = experiment: Arachidonic Acid-Induced Mouse Ear Edema Assay "AAI"; type: in vivo; settings: topical in acetone
Protocol: Topical anti-inflammatory activity is determined by the Arachidonic Acid-Induced Mouse Ear Edema "AAI" Assay, as is well accepted in the art. A modification of the assay described by Young, et al., supra., is performed as follows:
The test materials are prepared as solutions in acetone and applied to the right ears of mice, in groups of eight (8), at hour 0. At hour 1, 2 mg of arachidonic acid in acetone solution is applied to the right ears of the mice to induce an inflammatory response. The left ears of these animals serves as negative controls. At hour 2 the mice are sacrificed; their ears are removed and 8 mm diameter full thickness plugs are cut from the tip of each ear. The plugs are weighed and the mean right and left plug weights are calculated for each group. The results are expressed as percent inhibition of ear plug weight increase relative to a positive control group receiving only acetone at hour 0.

Female Hla:(SD) BR rats = experiment: Adjuvant-Induced Arthritis Assay "AI"; type: in vivo, rat; settings: oral, day 18, vs control animals
Protocol: Anti-inflammatory activity is determined by the Adjuvant-Induced Arthritis ("AI") Assay, as is well accepted in the art. A modification of the assay described by Pearson, et al., supra., is performed as follows:
Female Hla:(SD) BR rats weighting 160-180 g are randomly distributed to treatment groups of 12 animals, and given food and water ad libitum. Test materials are prepared fresh weekly as suspensions in carboxymethyl cellulose. The test animals are orally dosed with the suspensions in volumes of 1 ml twice per day Monday through Friday, and with 2 ml once per day on Saturdays and Sundays. […] At time 0, rats are injected intradermally in the proximal quarter of the tail with 0.1 ml of a mineral oil suspension of heat-killed Mycobacterium butyricum (Difco) at a concentration of 10 mg/ml. On day 18 the intensity of swelling in the four paws and tail is estimated visually and scored (0-4 for paws, 0-3 for tail) such that the total maximum score, indicating intense swelling of all four paws and tail, is 19. The animals are then sacrificed; the hind paws of each animal are removed and weighed. The percent inhibition is calculated by comparing the weight increase of the hind paws of the test animals versus the control animals.
The "AI" assay, as described in Example 29, was performed using 3-(3,5-di-t-butyl-4-hydroxybenzoyl)pyrrole (prepared according to Example 2) as the test material.

[1] = as reported by Isomura, et al., Chem. Pharm. Bull., 32(1): 152-165 (1984); cited from earlier work

SMILES	Inhibition (AAI) of ear plug weight increase (mice; dose 0.5 mg/ear) [%]	Inhibition (AAI) of ear plug weight increase (mice; dose 1.0 mg/ear) [%]	Inhibition (AAI) of ear plug weight increase (mice; dose 2.0 mg/ear)	inhibition of hind paw weight increase (Female Hla:(SD) BR rats; daily dose 0.4 mg/kg of body weight) [%]	inhibition of hind paw weight increase (Female Hla:(SD) BR rats; daily dose 2.0 mg/kg of body weight) [%]	anti-inflammatory activity [1]
CC(C)(C)c1cc(C(=O)c2cc[nH]c2)cc(C(C)(C)C)c1O [A, 3-(3,5-di-t-butyl-4-hydroxybenzoyl)pyrrole]	49	62	67% and 69%	54	70	
CC(C)(C)c1cc(C(=O)c2ccc[nH]2)cc(C(C)(C)C)c1O [B, 2-(3,5-di-t-butyl-4-hydroxybenzoyl)pyrrole, reference compound]			22%			
Cc1[nH]ccc1-c1cc(C(C)(C)C)c(O)c(C(C)(C)C)c1 [Formula VIII]						inactive

— patent US4935440A, “3-[ω-(3,5-Di-t-butyl-4-hydroxyphenyl)alkyl]pyrroles, and anti-inflammatory uses thereof” (Syntex (U.S.A.) Inc., priority 1989, dated 1990)
